Like-named read-outs stand apart in the source and are kept apart here.
Molecular target: T1, LmxCLK1 (Leishmania mexicana, UniProt E9AMP2)
T1 sequence (E9AMP2 1-422): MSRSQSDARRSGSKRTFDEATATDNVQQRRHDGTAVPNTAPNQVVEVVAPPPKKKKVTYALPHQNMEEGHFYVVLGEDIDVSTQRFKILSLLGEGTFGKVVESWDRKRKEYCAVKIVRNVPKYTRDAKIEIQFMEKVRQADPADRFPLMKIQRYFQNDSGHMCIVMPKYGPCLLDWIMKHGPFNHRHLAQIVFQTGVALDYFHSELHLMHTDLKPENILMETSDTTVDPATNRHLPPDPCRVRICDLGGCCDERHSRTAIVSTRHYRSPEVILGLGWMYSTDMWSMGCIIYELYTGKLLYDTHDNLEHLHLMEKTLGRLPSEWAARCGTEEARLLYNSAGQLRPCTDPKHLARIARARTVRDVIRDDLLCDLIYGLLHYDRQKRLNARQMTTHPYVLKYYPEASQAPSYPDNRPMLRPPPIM
Assay: biochemical
Type: binding

[1] = DSF, 10 µM compound, 2 µM LmxCLK1, Run 1
[2] = DSF, 10 µM compound, 2 µM LmxCLK1, Run 2
[3] = DSF, 10 µM compound, 2 µM LmxCLK1, mean of two runs
[4] = DSF, 10 µM compound, 2 µM LmxCLK1, Run 1, read-out: ΔTm Run 1
[5] = DSF, 10 µM compound, 2 µM LmxCLK1, Run 2, read-out: ΔTm Run 2
[6] = DSF, 10 µM compound, 2 µM LmxCLK1, mean of two runs, read-out: ΔTm Average

Structure (SMILES)	ΔTm Run 1 [1] [°C]	ΔTm Run 2 [2] [°C]	ΔTm Average [3] [°C]	ΔTm at 10 µM [4] [°C]	ΔTm at 10 µM [5] [°C]	ΔTm at 10 µM [6] [°C]	other results
Cc1cnc(Nc2ccc(N3CCN(C)CC3)cc2)nc1Nc1cccc(S(=O)(=O)NC(C)(C)C)c1 [TG101209]	0.2	-0.3	0.0	–	–	–	–
CSc1cccc(Nc2ncc3cc(-c4c(Cl)cccc4Cl)c(=O)n(C)c3n2)c1 [PD173955]	0.0	-0.3	-0.1	–	–	–	–
N#C/C(=C(/N)Sc1ccc(N)cc1)c1ccccc1C(F)(F)F [SL-327]	-0.2	-0.2	-0.2	–	–	–	–
COc1ccc(-c2ccc3ncc4c(c3c2)n(-c2ccc(N3CCNCC3)c(C(F)(F)F)c2)c(=O)n4C)cn1 [BGT226 (NVP-BGT226)]	0.9	0.7	0.8	–	–	–	–
COc1cc(Nc2ncc(F)c(Nc3ccc4c(n3)NC(=O)C(C)(C)O4)n2)cc(OC)c1OC [R406 (free base)]	0.0	0.0	0.0	–	–	–	–
Cc1nc(N)sc1-c1ccnc(Nc2ccc(N3CCOCC3)cc2)n1 [CYC116]	–	–	–	0.4	-0.1	0.1	–
O=C(Nc1c[nH]nc1-c1nc2ccc(CN3CCOCC3)cc2[nH]1)NC1CC1 [AT9283]	–	–	–	2.2	2.1	2.2	–
O=C(Cc1ccc(-c2ccc(OCCN3CCOCC3)cc2)cn1)NCc1ccccc1 [KX2-391]	–	–	–	–	–	–	ΔTm Average: 0.1 °C; ΔTm Run 1: 0.2 °C; ΔTm Run 2: 0 °C
Cc1c(NC(=O)OC[C@@H]2COCCN2)cn2ncnc(Nc3ccc4c(cnn4Cc4cccc(F)c4)c3)c12 [AC480 (BMS-599626)]	0.4	0.2	0.3	–	–	–	–
Cn1cnc2c(F)c(Nc3ccc(Br)cc3Cl)c(C(=O)NOCCO)cc21 [Selumetinib (AZD6244)]	–	–	–	0.3	0.3	0.3	–
FC(F)c1nc2ccccc2n1-c1nc(N2CCOCC2)nc(N2CCOCC2)n1 [ZSTK474]	–	–	–	0	0	0	–
CO[C@H]1C[C@@H]2CC[C@@H](C)[C@@](O)(O2)C(=O)C(=O)N2CCCC[C@H]2C(=O)O[C@H]([C@H](C)C[C@@H]2CC[C@@H](OP(C)(C)=O)[C@H](OC)C2)CC(=O)[C@H](C)/C=C(\C)[C@@H](O)[C@@H](OC)C(=O)[C@H](C)C[C@H](C)/C=C/C=C/C=C/1C [Ridaforolimus (Deforolimus)]	0.0	0.0	0.0	–	–	–	–
COc1cc2c(Oc3ccc4[nH]c(C)cc4c3F)ncnc2cc1OCCCN1CCCC1 [Cediranib (AZD2171)]	0.5	0.1	0.3	–	–	–	–
CS(=O)(=O)O.Cn1cc(C2=C(c3cn(CCCSC(=N)N)c4ccccc34)C(=O)NC2=O)c2ccccc21 [Ro 31-8220 Mesylate]	1.1	1.6	1.3	–	–	–	–
CO[C@H]1C[C@@H]2CC[C@@H](C)[C@@](O)(O2)C(=O)C(=O)N2CCCC[C@H]2C(=O)O[C@H]([C@H](C)C[C@@H]2CC[C@H](n3cnnn3)[C@H](OC)C2)CC(=O)[C@H](C)/C=C(\C)[C@@H](O)[C@@H](OC)C(=O)[C@H](C)C[C@H](C)/C=C/C=C/C=C/1C [Zotarolimus(ABT-578)]	0.2	0.0	0.1	–	–	–	–
CCn1c(=O)c(-c2cc[nH]n2)cc2c(C)nc(N)nc21 [SAR245409 (XL765)]	0.1	-0.2	0.0	–	–	–	–
Cc1cc(Nc2nc(N[C@@H](C)c3ccc(F)cc3)c(C#N)cc2F)[nH]n1 [AZ 960]	–	–	–	0.3	0.3	0.3	–
CC(C)CC(=O)Nc1[nH]nc2c1CN(C(=O)C1CCN(C)CC1)C2(C)C [PHA-793887]	–	–	–	0.1	0	0.1	–
